Patent publication US8486863B2, “Activators of lateral root formation” (VIB VZW, priority 2006, dated 2013)

Tests used:
[1] = system: Wild-type Arabidopsis thaliana; assay: Dose-response analysis of lateral root density and root length; format: in vivo
Procedure: FIG. 3: Dose-response analysis of class 1 (upper panel) and class 2 (lower panel) activators. Wild-type Arabidopsis thaliana seeds were germinated under standard conditions on agar plates. After 3 days of germination, seedlings were transferred to agar plates containing compound at different concentrations. Lateral root density was measured 10 days after germination. Bars represent standard errors.
FIG. 4: Dose-response analysis of A2, A11, A12, A14 and NAA. Wild-type Arabidopsis thaliana seeds were germinated under standard conditions on agar plates. After 3 days of germination, seedlings were transferred to agar plates containing compound at different concentrations and 1% DMSO. Plants transferred to agar plates containing 1% DMSO and no compound were used as controls. Lateral root density (left panels) and root length (right panels) were measured 10 days after germination. Bars represent standard errors.
For further phenotypic analysis, all plants were grown on vertically oriented square plates (Greiner Labortechnik, Austria) with solid medium derived from standard MS medium under the same conditions. 3 DAG plants were transferred to medium supplemented with compounds and were left to grow for another 7 days. After this, root length and number of LRs were counted using ImageJ 1.34 freeware.
As a subsequent step, the phenotypic effect of the 16 selected activators was determined in a dose-response analysis in which LR density (number of LRs per cm) was quantified (FIG. 3). Based upon potency and structure, two different classes of activators could be identified.

auxin signaling mutants [2] = assay: Effect of A12 and NAA on lateral root density and root length of auxin signaling mutants (Table 1); format: in vivo, Arabidopsis thaliana; parameters: Root length: unit not given here; conditions: 30 uM
Text: (§1) Afb1, Afb2, Afb3 and the triple mutant Tirlafb2afb3 were described by Dhamasiri et al. (2005). Tir1 was described by Ruegger et al., (1998); 1aa28 by Rogg et al., (2001); Tir7-1 by Ruegger et al., (1997); the Cyp79b2b3 double mutant by Ljung et al. (2005); the arf7arf19 double mutant by Fukaki et al., (2005); Aux1 by Bennett et al., (1996); Xbat32 by Nodzon et al., (2004), Axr1-12 by Timpte et al., (1995), Slr1 by Fukaki et al., 2002 and Axr3-1 by Collet et al., (2000) and the mutants were obtained from the publishing authors.
(§2) For phenotypic analysis, all mutants were grown on vertically oriented square plates (Greiner Labortechnik, Austria) with solid medium derived from standard MS medium. The plates were put in a growth chamber under continuous light (110 μE.m2.s1 photosynthetically active radiation, supplied by cool-white fluorescent tungsten tubes; Osram) at 22° C. Three days after germination, the mutant plants were transferred to medium supplemented with compounds and were left to grow for another 7 days. After this, root length and number of lateral roots were counted using ImageJ 1.34 freeware.
DMSO is used as negative control.

auxin signaling mutants [3] = assay: Effect of activators on lateral root density of auxin signaling mutants (Table 2); format: in vivo, Arabidopsis thaliana
Text: as §1, §2

[4] = tir TM (Tir1afb2afb3 triple mutant)

With `O=Cc1ccc(-c2cccc(C(F)(F)F)c2)o1` [A11var5] the “effect on LR formation (LR density), structure-activity analysis” value ([1]; structural variants, FIG. 6-8) was “minimal substructure required to induce LR formation”.
With `NC(=S)NN=Cc1ccc(-c2cccc(C(F)(F)F)c2)o1` [A12, 5-[3-(trifluoromethyl)phenyl]-2-furaldehyde thiosemicarbazone] the “potency as activator of LR development (LR density)” value ([1]; dose-response, FIG. 3) was “most potent activators of class 2”, the LR density (auxin signaling mutants [2]; CDKB DN) was 9.09 and the Root length (auxin signaling mutants [2]; CDKB DN) was 1.56. The Root length (auxin signaling mutants [2]; Col-0) was 2.24, the LR density (auxin signaling mutants [2]; Ws) was 16.70 and the Root length (auxin signaling mutants [2]; Ws) was 1.92. It also gave an LR density (auxin signaling mutants [2]; Xbat32) of 14.16, a Root length (auxin signaling mutants [2]; Xbat32) of 2.44 and an LR density (auxin signaling mutants [2]; afb1-1) of 15.55. It also gave a Root length (auxin signaling mutants [2]; afb1-1) of 1.86, an LR density (auxin signaling mutants [2]; afb2-1) of 15.11 and a Root length (auxin signaling mutants [2]; afb2-1) of 1.71. The LR density (auxin signaling mutants [2]; afb3-1) was 21.32, the Root length (auxin signaling mutants [2]; afb3-1) was 2.17 and the LR density (auxin signaling mutants [2]; arf7arf19 DM (double mutant)) was 1.73. The Root length (auxin signaling mutants [2]; arf7arf19 DM (double mutant)) was 3.45, the LR density (auxin signaling mutants [2]; aux1) was 15.94 and the Root length (auxin signaling mutants [2]; aux1) was 2.24. For the same compound, the LR density (auxin signaling mutants [2]; axr1-12) was 15.84, the Root length (auxin signaling mutants [2]; axr1-12) was 1.62 and the LR density (auxin signaling mutants [2]; axr5-1) was 14.10. The Root length (auxin signaling mutants [2]; axr5-1) was 3.40, the LR density (auxin signaling mutants [2]; cyp79b2-3 DM (double mutant)) was 17.30 and the Root length (auxin signaling mutants [2]; cyp79b2-3 DM (double mutant)) was 2.26. For the same compound, the LR density (auxin signaling mutants [2]; iaa28-1) was 8.85, the Root length (auxin signaling mutants [2]; iaa28-1) was 3.39 and the LR density (auxin signaling mutants [2]; lax3) was 15.27. For the same compound, the Root length (auxin signaling mutants [2]; lax3) was 2.48, the LR density (auxin signaling mutants [2]; msg2-1) was 27.49 and the Root length (auxin signaling mutants [2]; msg2-1) was 1.58. For the same compound, the LR density (auxin signaling mutants [2]; slr-1) was 0.00, the Root length (auxin signaling mutants [2]; slr-1) was 1.90 and the LR density (auxin signaling mutants [2]; tir1-1) was 13.38. For the same compound, the Root length (auxin signaling mutants [2]; tir1-1) was 2.34, the LR density (auxin signaling mutants [2]; tir7-1) was 17.30 and the Root length (auxin signaling mutants [2]; tir7-1) was 1.52. For the same compound, the LR density (auxin signaling mutants [2]; [4]) was 4.82, the Root length (auxin signaling mutants [2]; [4]) was 2.60 and the lateral root density (auxin signaling mutants [3]; Afb1-1, 30 uM) was 23.19 LR/cm. For the same compound, the lateral root density (auxin signaling mutants [3]; Afb2-1, 30 uM) was 10.44 LR/cm, the lateral root density (auxin signaling mutants [3]; Afb3-1, 30 uM) was 21.05 LR/cm and the lateral root density (auxin signaling mutants [3]; Arf7Arf19, 30 uM) was 0.94 LR/cm. It also gave a lateral root density (auxin signaling mutants [3]; Arf16, 30 uM) of 10.94 LR/cm, a lateral root density (auxin signaling mutants [3]; Arf17, 30 uM) of 15.09 LR/cm and a lateral root density (auxin signaling mutants [3]; Axrt-12, 30 uM) of 14.15 LR/cm. For the same compound, the lateral root density (auxin signaling mutants [3]; Cyp79, 30 uM) was 22.76 LR/cm, the lateral root density (auxin signaling mutants [3]; Iaa28-1, 30 uM) was 10.00 LR/cm and the lateral root density (auxin signaling mutants [3]; Tir7-1, 30 uM) was 27.42 LR/cm. For the same compound, the lateral root density (auxin signaling mutants [3]; TirTM, 30 uM) was 0.00 LR/cm.
Compound `O=C(NN=Cc1cccc(Cl)c1Cl)c1ccc(O)c(O)c1` [A6, N′-(2,3-dichlorobenzylidene)-3,4-dihydroxybenzohydrazide] has a lateral root density (auxin signaling mutants [3]; Afb1-1, 3 uM) of 10.89 LR/cm, a lateral root density (auxin signaling mutants [3]; Afb2-1, 3 uM) of 7.34 LR/cm and a lateral root density (auxin signaling mutants [3]; Afb3-1, 3 uM) of 14.40 LR/cm. For the same compound, the lateral root density (auxin signaling mutants [3]; Arf7Arf19, 3 uM) was 0.00 LR/cm, the lateral root density (auxin signaling mutants [3]; Arf16, 3 uM) was 6.67 LR/cm and the lateral root density (auxin signaling mutants [3]; Arf17, 3 uM) was 7.24 LR/cm. For the same compound, the lateral root density (auxin signaling mutants [3]; Axrt-12, 3 uM) was 4.78 LR/cm, the lateral root density (auxin signaling mutants [3]; Cyp79, 3 uM) was 31.92 LR/cm and the lateral root density (auxin signaling mutants [3]; Iaa28-1, 3 uM) was 0.00 LR/cm. The lateral root density (auxin signaling mutants [3]; Tir1-1, 3 uM) was 0.57 LR/cm, the lateral root density (auxin signaling mutants [3]; Tir7-1, 3 uM) was 11.42 LR/cm and the lateral root density (auxin signaling mutants [3]; TirTM, 3 uM) was 0.00 LR/cm. The lateral root density (auxin signaling mutants [3]; Xbat32, 3 uM) was 10.08 LR/cm.
In the case of `Clc1cccc(C=Nc2ccc(N3CCOCC3)cc2)c1Cl` [A4, (2,3-dichlorobenzylidene)[4-(4-morpholinyl)phenyl]amine], the lateral root density (auxin signaling mutants [3]; Afb1-1, 3 uM) is reported as 2.69 LR/cm, the lateral root density (auxin signaling mutants [3]; Afb2-1, 3 uM) is reported as 2.16 LR/cm and the lateral root density (auxin signaling mutants [3]; Afb3-1, 3 uM) is reported as 2.55 LR/cm. The lateral root density (auxin signaling mutants [3]; Arf7Arf19, 3 uM) was 0.00 LR/cm, the lateral root density (auxin signaling mutants [3]; Arf16, 3 uM) was 1.99 LR/cm and the lateral root density (auxin signaling mutants [3]; Arf17, 3 uM) was 1.87 LR/cm. For the same compound, the lateral root density (auxin signaling mutants [3]; Axrt-12, 3 uM) was 1.64 LR/cm, the lateral root density (auxin signaling mutants [3]; Cyp79, 3 uM) was 2.64 LR/cm and the lateral root density (auxin signaling mutants [3]; Iaa28-1, 3 uM) was 0.00 LR/cm. For the same compound, the lateral root density (auxin signaling mutants [3]; Tir1-1, 3 uM) was 0.89 LR/cm, the lateral root density (auxin signaling mutants [3]; Tir7-1, 3 uM) was 3.69 LR/cm and the lateral root density (auxin signaling mutants [3]; TirTM, 3 uM) was 0.00 LR/cm. For the same compound, the lateral root density (auxin signaling mutants [3]; Xbat32, 3 uM) was 0.91 LR/cm.
In the case of `Cc1c(N=Cc2cccc(Cl)c2Cl)cccc1[N+](=O)[O-]` [A7, (2,3-dichlorobenzylidene)(2-methyl-3-nitrophenyl)amine], the lateral root density (auxin signaling mutants [3]; Afb1-1, 3 uM) is reported as 9.46 LR/cm, the lateral root density (auxin signaling mutants [3]; Afb2-1, 3 uM) is reported as 2.69 LR/cm and the lateral root density (auxin signaling mutants [3]; Afb3-1, 3 uM) is reported as 17.43 LR/cm. It also gave a lateral root density (auxin signaling mutants [3]; Arf7Arf19, 3 uM) of 0.00 LR/cm, a lateral root density (auxin signaling mutants [3]; Arf16, 3 uM) of 2.71 LR/cm and a lateral root density (auxin signaling mutants [3]; Arf17, 3 uM) of 3.40 LR/cm. For the same compound, the lateral root density (auxin signaling mutants [3]; Axrt-12, 3 uM) was 2.02 LR/cm, the lateral root density (auxin signaling mutants [3]; Cyp79, 3 uM) was 19.35 LR/cm and the lateral root density (auxin signaling mutants [3]; Iaa28-1, 3 uM) was 0.00 LR/cm. It also gave a lateral root density (auxin signaling mutants [3]; Tir1-1, 3 uM) of 1.01 LR/cm, a lateral root density (auxin signaling mutants [3]; Tir7-1, 3 uM) of 5.73 LR/cm and a lateral root density (auxin signaling mutants [3]; TirTM, 3 uM) of 0.00 LR/cm. For the same compound, the lateral root density (auxin signaling mutants [3]; Xbat32, 3 uM) was 1.23 LR/cm.
In the case of `Nc1ncc(Cc2cccc(Cl)c2Cl)s1` [A3, 5-(2,3-dichlorobenzyl)-1,3-thiazol-2-amine], the lateral root density (auxin signaling mutants [3]; Afb1-1, 3 uM) is reported as 17.77 LR/cm, the lateral root density (auxin signaling mutants [3]; Afb2-1, 3 uM) is reported as 19.58 LR/cm and the lateral root density (auxin signaling mutants [3]; Afb3-1, 3 uM) is reported as 17.45 LR/cm. It also gave a lateral root density (auxin signaling mutants [3]; Arf7Arf19, 3 uM) of 33.59 LR/cm, a lateral root density (auxin signaling mutants [3]; Arf16, 3 uM) of 11.32 LR/cm and a lateral root density (auxin signaling mutants [3]; Arf17, 3 uM) of 13.31 LR/cm. It also gave a lateral root density (auxin signaling mutants [3]; Axrt-12, 3 uM) of 15.77 LR/cm, a lateral root density (auxin signaling mutants [3]; Cyp79, 3 uM) of 21.24 LR/cm and a lateral root density (auxin signaling mutants [3]; Iaa28-1, 3 uM) of 13.96 LR/cm. It also gave a lateral root density (auxin signaling mutants [3]; Tir1-1, 3 uM) of 11.91 LR/cm, a lateral root density (auxin signaling mutants [3]; Tir7-1, 3 uM) of 26.15 LR/cm and a lateral root density (auxin signaling mutants [3]; TirTM, 3 uM) of 10.88 LR/cm. For the same compound, the lateral root density (auxin signaling mutants [3]; Xbat32, 3 uM) was 13.07 LR/cm.
With `Cc1ccccc1OCC(=O)NN=Cc1ccc(C(=O)O)cc1` [A9, 4-{2-[(2-methylphenoxy)acetyl]carbonohydrazonoyl}benzoic acid] the lateral root density (auxin signaling mutants [3]; Afb1-1, 30 uM) was 13.57 LR/cm, the lateral root density (auxin signaling mutants [3]; Afb2-1, 30 uM) was 11.19 LR/cm and the lateral root density (auxin signaling mutants [3]; Afb3-1, 30 uM) was 16.77 LR/cm. The lateral root density (auxin signaling mutants [3]; Arf7Arf19, 30 uM) was 0.25 LR/cm, the lateral root density (auxin signaling mutants [3]; Arf16, 30 uM) was 6.67 LR/cm and the lateral root density (auxin signaling mutants [3]; Arf17, 30 uM) was 12.86 LR/cm. It also gave a lateral root density (auxin signaling mutants [3]; Axrt-12, 30 uM) of 6.09 LR/cm, a lateral root density (auxin signaling mutants [3]; Cyp79, 30 uM) of 13.29 LR/cm and a lateral root density (auxin signaling mutants [3]; Iaa28-1, 30 uM) of 12.33 LR/cm. For the same compound, the lateral root density (auxin signaling mutants [3]; Tir1-1, 30 uM) was 3.29 LR/cm, the lateral root density (auxin signaling mutants [3]; Tir7-1, 30 uM) was 17.91 LR/cm and the lateral root density (auxin signaling mutants [3]; TirTM, 30 uM) was 0.00 LR/cm. For the same compound, the lateral root density (auxin signaling mutants [3]; Xbat32, 30 uM) was 8.43 LR/cm.
